Test results: patent US4386103A, “Dichloroamino acid derivatives useful as potent germicidal and fungicidal agents” (Merck & Co., Inc., priority 1981, dated 1983)

Tests used:
Assay type in all cases: cell-based
Conditions in all cases: 0.1M NaOAc pH 4.6
Microsporum canis = assay: Contact fungicidal screen, Microsporum canis
Protocol: (§1) The organisms used in the Contact Fungicidal Screen are a dermatophyte, trychophyton mentagrophytes, frequently associated with athlete's foot; a yeast, Candida albican, causative agent of thrush and vaginitis; a phycomycete, Rhizopus oryzae, commonly known as black bread mold; an ascomycete, Aspergillus fumagatis, found in chicken droppings and causing lung infections; and another dermatophyte, Microsporum canis, which causes ringworm. These organisms are maintained as stock cultures at 4° C. on agar […] of the following composition: dextrose 2%, Neopeptone (Difco) 1%, agar 2%. Fluid medium of the same nutrient composition (without agar) was used to test the viability of the organisms after exposure to the fungicide. This medium is also known as Sabouraud's medium. Sabouraud's agar plate cultures of Aspergillus fumigatus, Microsporum canis, and a different culture of Trychophyton mentagrophytes are prepared by planting an inoculum at the center of an agar plate and incubating at 25°-30° C. for seven to ten days. The mycelial mats are removed from the surface of the agar and prepared in the same manner as the Rhizopus culture. The compounds are weighed into heat sterilized 100 ml volumetric flasks and immediately before screening dissolved in 0.1 M NaOAc pH 4.6 buffer (test solutions). The Aspergillus, Candida, Microsporum and Rhizopus species are screened in a slightly different manner. Basically, the procedure for the Contact Germicidal Efficiency Screen is utilized. After the test solutions are made up, 5 ml aliquots are pipetted into heat sterilized 25 ml glass stoppered erlenmeyer flasks. The screen is initiated when 0.5 ml of the 5×10^6 cell (spore) per ml suspension is added to the flask containing 5 ml of the test solution. […] The subculture tubes are incubated at 25°-30° C. for ten days with daily observation for mycelial growth. The earliest subculture time at which no growth is present is considered the endpoint and is recorded as the sterilization time. To insure the viability of the culture, a 0.5 ml aliquot of the 5×10^6 cells (spores) per ml suspension is transferred to 5 ml of the pH 4.6 buffer. A loopful of the inoculated buffer is then subcultured to 7 ml of fluid Sabouraud's medium and incubated at 25°-30° C. for ten days. To insure that the dilution of the test solution into the subculture medium does stop the action, a loopful of the test solution and a loopful of the inoculated buffer are transferred into the same subculture tube. This tube is also incubated at 25°-30° C. for ten days.

Candida albican = assay: Contact fungicidal screen, Candida albican
Protocol: The organisms used in the Contact Fungicidal Screen are a dermatophyte, trychophyton mentagrophytes, frequently associated with athlete's foot; a yeast, Candida albican, causative agent of thrush and vaginitis; a phycomycete, Rhizopus oryzae, commonly known as black bread mold; an ascomycete, Aspergillus fumagatis, found in chicken droppings and causing lung infections; and another dermatophyte, Microsporum canis, which causes ringworm. These organisms are maintained as stock cultures at 4° C. on agar slants of the following composition: dextrose 2%, Neopeptone (Difco) 1%, agar 2%. Fluid medium of the same nutrient composition (without agar) was used to test the viability of the organisms after exposure to the fungicide. This medium is also known as Sabouraud's medium.
The Candida albican is grown in Sabouraud's liquid medium at 25°-30° C. for three days. At the end of the incubation period the cell suspension is centrifuged at 200 G and washed with sterile physiological saline (0.85% NaCl). The density of the cell suspension is determined by counting in a hemacytometer. The suspension is stored a 4° C. until it is used, at which time it is diluted with sterile physiological saline to a density of 5×10^6 cells per ml.
The compounds are weighed into heat sterilized 100 ml volumetric flasks and immediately before screening dissolved in 0.1 M NaOAc pH 4.6 buffer (test solutions).
The Aspergillus, Candida, Microsporum and Rhizopus species are screened in a slightly different manner. Basically, the procedure for the Contact Germicidal Efficiency Screen is utilized. After the test solutions are made up, 5 ml aliquots are pipetted into heat sterilized 25 ml glass stoppered erlenmeyer flasks. The screen is initiated when 0.5 ml of the 5×10^6 cell (spore) per ml suspension is added to the flask containing 5 ml of the test solution. At intervals of 0.5, 2.5, 5.0, 10.0 and 15.0 minutes, a 4 mm loopful of the inoculated test solution is subcultured into 7 mL of sterile fluid Sabouraud's medium and mixed on a vortex, the high dilution serving to stop the action of the compound. The subculture tubes are incubated at 25°-30° C. for ten days with daily observation for mycelial growth. The earliest subculture time at which no growth is present is considered the endpoint and is recorded as the sterilization time.
To insure the viability of the culture, a 0.5 ml aliquot of the 5×10^6 cells (spores) per ml suspension is transferred to 5 ml of the pH 4.6 buffer. A loopful of the inoculated buffer is then subcultured to 7 ml of fluid Sabouraud's medium and incubated at 25°-30° C. for ten days. To insure that the dilution of the test solution into the subculture medium does stop the action, a loopful of the test solution and a loopful of the inoculated buffer are transferred into the same subculture tube. This tube is also incubated at 25°-30° C. for ten days.

Aspergillus fumigatus = assay: Contact fungicidal screen, Aspergillus fumigatus
Protocol: as §1

SMILES	Sterilization Time (Microsporum canis; 10 PPM) [min]	Sterilization Time (Microsporum canis; 100 PPM) [min]	Sterilization Time (Microsporum canis; 1000 PPM) [min]	Sterilization Time (Candida albican; 10 PPM) [min]	Sterilization Time (Candida albican; 100 PPM) [min]	Sterilization Time (Candida albican; 1000 PPM) [min]	Sterilization Time (Aspergillus fumigatus; 10 PPM) [min]	Sterilization Time (Aspergillus fumigatus; 100 PPM) [min]	Sterilization Time (Aspergillus fumigatus; 1000 PPM) [min]
CC(C)(COC(=O)CCCC(=O)O)N(Cl)Cl [(V), 2-dichloramino-2-methylpropyl-hemiglutarate]	15	5.0	2.5	15	15	0.5	15	15	15
CC(C)(CCC(=O)O)N(Cl)Cl [(III), 4-Dichloroamino-4-methylvaleric acid]	15	5.0	0.5	15	15	0.5	15	15	10.0
CC(C)(COC(=O)CCC(=O)O)N(Cl)Cl [(IV), 2-Dichloroamino-2-methylpropylhemisuccinate]	15	15.0	2.5	15	15	2.5	15	15	15
CC(C)(CC(=O)O)N(Cl)Cl [(II)]	15	10.0	2.5	15	15	2.5	15	15	15
